Results reported in the supplement of paper PMC11061612.

Assays:
Assay in all cases: combination Emax (second highest fraction inhibited in the dose matrix, 72 h); higher = more inhibition; extreme values may be limits of the assay
[1] = system: AGS (Gastric Carcinoma)
In short: (§1)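 Cell lines grown in DMEM/F12 or RPMI with 10% FBS were plated in 1536-well plates and held 24 hours at 37°C, 5% CO2 before 72 hours of exposure to two-drug dose matrices, with DMSO typically at 0.2%. CellTiter-Glo 2.0 luminescence gave viability, which was converted to inhibition. Vehicle wells were set to 0 and blank wells to 1. Combination Emax is the second-highest inhibition in the matrix, and Bliss excess is the observed combination effect minus the expected EA + EB − EA·EB, where EA and EB are the single-agent effects.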

[2] = system: B-CPAP (Thyroid Gland Carcinoma)
In short: as §1

[3] = system: CAL-148 (Breast Carcinoma)
In short: as §1

[4] = system: DEL (T-Cell Non-Hodgkin's Lymphoma)
In short: as §1

[5] = system: EC-GI-10 (Esophageal Squamous Cell Carcinoma)
In short: as §1

[6] = system: HO-1-N-1 (Oral Cavity Carcinoma)
In short: as §1

[7] = system: Hs-578-T (Breast Carcinoma)
In short: as §1

[8] = system: HuP-T4 (Pancreatic Carcinoma)
In short: as §1

[9] = system: KELLY (Neuroblastoma)
In short: as §1

[10] = system: KURAMOCHI (Ovarian Carcinoma)
In short: as §1

[11] = system: LB831-BLC (Bladder Carcinoma)
In short: as §1

[12] = system: LNCaP-Clone-FGC (Prostate Carcinoma)
In short: as §1

[13] = system: LS-180 (Colorectal Carcinoma)
In short: as §1

[14] = system: MDA-MB-361 (Breast Carcinoma)
In short: as §1

[15] = system: MFE-296 (Endometrial Carcinoma)
In short: as §1

[16] = system: NOS-1 (Osteosarcoma)
In short: as §1

[17] = system: OVCA420 (Ovarian Carcinoma)
In short: as §1

[18] = system: RO82-W-1 (Thyroid Gland Carcinoma)
In short: as §1

[19] = system: SNU-5 (Gastric Carcinoma)
In short: as §1

[20] = system: UM-UC-3 (Bladder Carcinoma)
In short: as §1

SMILES	combination Emax [1]	combination Emax [2]	combination Emax [3]	combination Emax [4]	combination Emax [5]	combination Emax [6]	combination Emax [7]	combination Emax [8]	combination Emax [9]	combination Emax [10]	combination Emax [11]	combination Emax [12]	combination Emax [13]	combination Emax [14]	combination Emax [15]	combination Emax [16]	combination Emax [17]	combination Emax [18]	combination Emax [19]	combination Emax [20]
CN(C)CCCOc1ccc(-c2ccc3ncc4c(c3c2)n(C2CCOCC2)c(=O)n4C)cn1 [AZD0156] + C=CCn1c(=O)c2cnc(Nc3ccc(N4CCN(C)CC4)cc3)nc2n1-c1cccc(C(C)(C)O)n1 [AZD1775] (first compound max 1 µM, partner max 1 µM)	0.478	0.357	0.966	1	0.849	0.348	0.784	0.217	1	0.678	0.388	0.738	0.452	0.858	0.258	0.247	0.141	0.38	0.56	0.264
CN(C)CCCOc1ccc(-c2ccc3ncc4c(c3c2)n(C2CCOCC2)c(=O)n4C)cn1 [AZD0156] + CCN(CCO)CCCOc1ccc2c(Nc3cc(CC(=O)Nc4cccc(F)c4)[nH]n3)ncnc2c1 [AZD2811] (first compound max 1 µM, 7x7, partner max 1 µM)	0.238	0.189	0.935	0.684	0.471	0.74	0.565	0.244	0.684	0.115	0.0797	0.556	0.261	0.456	0.0192	0.119	0.0163	0.308	0.162	0.155
CN(C)CCCOc1ccc(-c2ccc3ncc4c(c3c2)n(C2CCOCC2)c(=O)n4C)cn1 [AZD0156] + C[C@@H]1COCCN1C2=NC(=NC(=C2)C3(CC3)[S@](=N)(=O)C)C4=C5C=CNC5=NC=C4 [AZD6738] (first compound max 1 µM, 7x7, partner max 10 µM)	0.706	0.479	0.791	0.988	0.724	0.809	0.885	0.46	0.987	0.597	0.23	0.737	0.694	0.9	0.388	0.255	0.545	0.34	0.882	0.475
CN(C)CCCOc1ccc(-c2ccc3ncc4c(c3c2)n(C2CCOCC2)c(=O)n4C)cn1 [AZD0156] + O=C(c1cc(Cc2n[nH]c(=O)c3ccccc23)ccc1F)N1CCN(C(=O)C2CC2)CC1 [Olaparib] (first compound max 3 µM, partner max 3 µM)	0.392	0.34	0.604	0.78	0.436	0.346	0.519	0.289	0.607	0.152	0.26	0.639	0.24	0.384	0.228	0.328	0.23	0.313	0.439	0.289
C=CCn1c(=O)c2cnc(Nc3ccc(N4CCN(C)CC4)cc3)nc2n1-c1cccc(C(C)(C)O)n1 [AZD1775] + C1CN(CCC1(C(=O)N[C@@H](CCO)C2=CC=C(C=C2)Cl)N)C3=NC=NC4=C3C=CN4 [Capivasertib] (first compound max 3 µM, partner max 3 µM)	0.976	0.815	0.92	1	0.965	0.781	0.841	0.691	1	0.625	0.75	1	0.734	0.851	0.561	0.606	0.59	0.471	0.7	0.464
C=CCn1c(=O)c2cnc(Nc3ccc(N4CCN(C)CC4)cc3)nc2n1-c1cccc(C(C)(C)O)n1 [AZD1775] + C[C@@H]1COCCN1C2=NC(=NC(=C2)C3(CC3)[S@](=N)(=O)C)C4=C5C=CNC5=NC=C4 [AZD6738] (first compound max 1 µM, partner max 10 µM)	0.848	0.811	1	1	0.943	0.883	0.921	0.521	1	0.743	0.72	0.787	0.809	0.922	0.659	0.622	0.518	0.445	0.934	0.682
C=CCn1c(=O)c2cnc(Nc3ccc(N4CCN(C)CC4)cc3)nc2n1-c1cccc(C(C)(C)O)n1 [AZD1775] + O=C(c1cc(Cc2n[nH]c(=O)c3ccccc23)ccc1F)N1CCN(C(=O)C2CC2)CC1 [Olaparib] (first compound max 1 µM, partner max 10 µM)	0.547	0.456	0.978	0.999	0.831	0.437	0.839	0.251	0.988	0.699	0.607	0.77	0.574	0.861	0.279	0.376	0.881	0.405	0.433	0.326
COc1nnc2ccc(N3CCC(c4ccc(OCCN5CCN(C)C(=O)[C@H]5C)cc4)CC3)nn12 [AZD5153] + CN(CC[C@H](CSC1=CC=CC=C1)NC2=C(C=C(C=C2)S(=O)(=O)NC(=O)C3=CC=C(C=C3)N4CCC(CC4)[C@H](C5=CC=CC=C5C6=CC=C(C=C6)Cl)O)S(=O)(=O)C(F)(F)F)CCO [AZD4320] (first compound max 1 µM, 7x7, partner max 1 µM)	0.918	0.925		0.844	0.275			0.479				0.747		0.814	0.31	0.936	0.813		0.506	
Cc1c2c(nn1C)CSCc1cc(n(C)n1)CSc1cc(c3ccccc3c1)OCCCc1c(C(=O)O)n(C)c3c-2c(Cl)ccc13 [AZD5991] + C1CN(CCC1(C(=O)N[C@@H](CCO)C2=CC=C(C=C2)Cl)N)C3=NC=NC4=C3C=CN4 [Capivasertib] (first compound max 1 µM, 7x7, partner max 3 µM)	0.335		1	1	0.775	0.944	0.747	0.351	0.676	0.307	0.352	0.997	0.315	0.718	0.825	0.79	0.212	0.246	0.288	0.216
Cc1c2c(nn1C)CSCc1cc(n(C)n1)CSc1cc(c3ccccc3c1)OCCCc1c(C(=O)O)n(C)c3c-2c(Cl)ccc13 [AZD5991] + C[C@@H](Nc1cc(F)cc(F)c1)c1cc(C(=O)N(C)C)cc2c(=O)cc(N3CCOCC3)oc12 [AZD8186] (first compound max 1 µM, 7x7, partner max 3 µM)	0.246	0.227	0.335	1	0.559	0.933	0.738	0.442	0.726	0.404	0.366	0.894		0.806	0.265	0.84	0.282	0.367	0.427	0.311
CC(=O)c1c(C)c2cnc(Nc3ccc(N4CCNCC4)cn3)nc2n(C2CCCC2)c1=O [Palbociclib] + CN(CC[C@H](CSC1=CC=CC=C1)NC2=C(C=C(C=C2)S(=O)(=O)NC(=O)C3=CC=C(C=C3)N4CCC(CC4)[C@H](C5=CC=CC=C5C6=CC=C(C=C6)Cl)O)S(=O)(=O)C(F)(F)F)CCO [AZD4320] (first compound max 10 µM, 7x7, partner max 1 µM)	0.823	0.59		0.916	0.493			0.208				0.534		0.185	0.293	0.952	0.21		0.334	
CCc1c2c(nc3ccc(O)cc13)-c1cc3c(c(=O)n1C2)COC(=O)[C@]3(O)CC [SN-38] + O=C(c1cc(Cc2n[nH]c(=O)c3ccccc23)ccc1F)N1CCN(C(=O)C2CC2)CC1 [Olaparib] (first compound max 0.3 µM, 7x7, partner max 10 µM)	0.884	0.946	0.96	1		1	0.709	0.948	0.884	0.651	0.85		0.748		0.595	0.134		0.469		0.985
C[C@@H](c1ccc2nccn2c1)n1nnc2ncc(-c3cnn(C)c3)nc21 [Savolitinib] + CN(CC[C@H](CSC1=CC=CC=C1)NC2=C(C=C(C=C2)S(=O)(=O)NC(=O)C3=CC=C(C=C3)N4CCC(CC4)[C@H](C5=CC=CC=C5C6=CC=C(C=C6)Cl)O)S(=O)(=O)C(F)(F)F)CCO [AZD4320] (first compound max 1 µM, 7x7, partner max 1 µM)	0.377	0.276		0.217	0.27			0.124				0.258		0.114	0.2	0.506	0.192		1	
